The values below come from patent publication US8158158B2, “Composite biocidal particles” (Arch Chemicals, Inc., priority 1998, dated 2012).

For series [1] the following is noted: cited from earlier work; for solubility: background statement.
The next series deals with hard and soft fouling. In words: Antifouling efficacy of paint on fiberglass panels submerged in seawater. It is filed as in vivo. The following applies: single biocide, explanatory statement. As to the method: The antifouling efficacy of the composition of Example 1 was evaluated by mixing […] of it into 90 grams of a paint base. The commercial paint comprised:
This paint was painted onto fiberglass panels (8″×10″) and (12″×6″), which were then submerged in seawater for eight months (and running) in Miami, Fla.

Read-outs that look alike come from different tables or passages of the source.

zinc pyrithione: in series [1], the solubility is 6-10 ppm. In addition, the water solubility in series [1] (water) was 6-10 ppm.
`[Na+].[O-][n+]1ccccc1[S-]` [sodium salt of pyrithione, sodium pyrithione]: the water solubility result in series [1] (water) is listed as “about 53 % by weight”.
In the case of `On1ccccc1=S.On1ccccc1=S.[Cu]` [Copper pyrithione, copper pyrithione], the solubility entry in series [1] is “about 1 ppm”. Besides, the water solubility result in series [1] (in seawater) is “less than 1 ppm”. The efficacy against algae entry in the series on hard and soft fouling is “most effective against algae”.
For `[Cu].[O]=[Cu]` [cuprous oxide], in the series with hard and soft fouling, the efficacy against algae entry is recorded as “relatively ineffective against algae” and the “resistance to barnacle formation” value is recorded as “strongly resisting barnacle formation”.
